BindingDB's records for PubMed 32771797 (Southern Medical University, 2020)

Assay: Inhibition of Severe acute respiratory syndrome coronavirus 2 MPro incubated for 24 hrs by plaque assay

O=C[C@H](C[C@@H]1CCNC1=O)NC(=O)[C@H](Cc1cccc(F)c1)NC(=O)c1cc2ccccc2[nH]1 [med.21724, Compound 62] gave an EC50 of 720 nM.
